Where a name gives a salt, the structure may show the parent alone.
Biological target: T1, KRAS-G12D and SOS1 (Homo sapiens, UniProt P01116, G12D)
T1 construct: purchased
Assay: Inhibition of KRAS-G12D/SOS1 binding (Cisbio binding kit, 665/615 ratio), Effect Embodiment A
Conditions: read-out: GTP-KRAS-G12D:SOS1 IC50
Procedure, shortened: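 Test compounds were serially diluted 3-fold from the storage solution over 11 points and dispensed in duplicate wells at 1% final DMSO.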

T1 sequence (P01116 1-188 isoform P01116-2 G12D): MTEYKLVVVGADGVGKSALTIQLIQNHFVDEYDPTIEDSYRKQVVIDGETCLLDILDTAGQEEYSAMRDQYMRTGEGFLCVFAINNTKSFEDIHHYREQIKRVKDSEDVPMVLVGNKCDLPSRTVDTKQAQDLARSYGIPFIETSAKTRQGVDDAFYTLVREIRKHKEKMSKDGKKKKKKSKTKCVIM

IC50 [nM]	SMILES
316	CN1CCC[C@H]1COc1nc(N2CCN(C(=O)CCN)[C@@H](CC#N)C2)c2cc(Cl)c(-c3cc(O)cc4ccccc34)c(F)c2n1 (single isomer, unassigned) [Compound 157, 2-((S)-1-(3-aminopropionyl)-4-((S or R)-6-chloro-8-fluoro-7-(3-hydroxynaphthalen-1-yl)-2-((S)-1-methylpyrrolidine-2-yl)methoxy)quinazolin-4-yl)-piperazin-2-yl)acetonitrile ditrifluoroacetate]
117	CN1CCC[C@H]1COc1nc(N2CC3CCC(C2)N3)c2cc(F)c(-c3cc(O)cc4ccccc34)c(F)c2n1 (single isomer, unassigned) [Compound 160b, (S or R) 4-(4-((1R,5S)-3,8-diazabicyclo[3.2.1]octan-3-yl)-6,8-difluoro-2-((S)-1-methylpyrrolidin-2-yl)methoxy)quinazolin-7-yl)naphthalen-2-ol dihydrochloride]
678	CN(C)C12CC(c3nc(N4CC5CCC(C4)N5)c4cc(Cl)c(-c5cc(O)cc6ccccc56)c(F)c4n3)(C1)C2 (single isomer, unassigned) [Compound 162a, 4-((S or R)-4-((1R,5S)-3,8-diazabicyclo[3.2.1]octan-3-yl)-6-chloro-2-(3-(dimethylamino)bicyclo[1.1.1]pentan-1-yl)-8-fluoroquinazolin-7-yl)naphthalen-2-ol dihydrochloride]
276	Oc1cc(-c2c(Cl)cc3c(N4CC5CCC(C4)N5)nc(OCC(F)CN4C5CCC4COC5)nc3c2F)c2ccccc2c1 (single isomer, unassigned) [Compound 179a, ((4R or 4S)-4-(2-((2R or 2S)-3-(3-oxa-8-azabicyclo[3.2.1]octan-8-yl)-2-fluoropropoxy)-4-((1R,5S)-3,8-diazabicyclo[3.2.1]octan-3-yl)-6-chloro-8-fluoroquinazolin-7-yl)naphthalen-2-ol diformate]
387	CCCN(C)CC1(COc2nc(N3C[C@H]4CC[C@@H](C3)N4)c3cc(Cl)c(-c4cc(O)cc5ccccc45)c(F)c3n2)CC1 (single isomer, unassigned) [Compound 185, (R or S)-4-(4-((1R,5S)-3,8-diazabicyclo[3.2.1]octan-3-yl)-6-chloro-8-fluoro-2-((1-((methyl(propyl)amino)methyl)cyclopropyl)methoxy)quinazolin-7-yl)naphthalen-2-ol diformate]
8320	CN1CCC[C@H]1C1(Oc2nc(N3CC4CCC(C3)N4)c3cc(Cl)c(-c4cc(O)cc5ccccc45)c(F)c3n2)CC1 (single isomer, unassigned) [Compound 189, 4-((R or S)-4-((1R,5S)-3,8-diazabicyclo[3.2.1]octan-3-yl)-6-chloro-8-fluoro-2-(1-((S)-1-methylpyrrolidin-2-yl)cyclopropoxy)quinazolin-7-yl)naphthalen-2-ol diformate]
8770	CN1CCC[C@H]1COc1nc(N2CC3CCC(C2)N3)c2cc(Cl)c(-c3c(F)c(O)cc4ccccc34)c(F)c2n1 (single isomer, unassigned) [Compound 195a, (R or S)-4-(4-((1R,5S)-3,8-diazabicyclo[3.2.1]octan-3-yl)-6-chloro-8-fluoro-2-((S)-1-methylpyrrolidin-2-yl)methoxy)quinazolin-7-yl)-3-fluoronaphthalen-2-ol diformate]
2710	Oc1cc(Cl)c(C2CC2)c(-c2c(Cl)cc3c(N4CC5CCC(C4)N5)nc(OCCCN4C5CCC4COC5)nc3c2F)c1 (single isomer, unassigned) [Compound 197b, 3-((7S or 7R)-2-(3-(3-oxa-8-azabicyclo[3.2.1]octan-8-yl)propoxy)-4-((1R,5S)-3,8-diazabicyclo[3.2.1]octan-3-yl)-6-chloro-8-fluoroquinazolin-7-yl)-5-chloro-4-cyclopropylphenol formate]
556	O=S1(=O)CC2CCC(C1)N2CCCOc1nc(N2CC3CCC(C2)N3)c2cc(Cl)c(-c3cc(O)cc4ccccc34)c(F)c2n1 (single isomer, unassigned) [Compound 212, 8-(3-((S or R)-4-((1R,5S)-3,8-diazabicyclo[3.2.1]octan-3-yl)-6-chloro-8-fluoro-7-(3-hydroxynaphthalen-1-yl)quinazolin-2-yl)oxy)propyl)-3-thio-8-azabicyclo[3.2.1]octane-3,3-dioxide formate]
514	N=[S+]1([O-])CC2CCC(C1)N2CCCOc1nc(N2CC3CCC(C2)N3)c2cc(Cl)c(-c3cc(O)cc4ccccc34)c(F)c2n1 (single isomer, unassigned) [Compound 213a, (1R,3S or 3R,5S)-8-(3-((4-((1R,5S)-3,8-diazabicyclo[3.2.1]octan-3-yl)-6-chloro-8-fluoro-7-(3-hydroxynaphthalen-1-yl)quinazolin-2-yl)oxy)propyl)-3-imino-3λ^6-thia-8-azabicyclo[3.2.1]octane 3-oxide formate]
673	N=[S+]1([O-])CC2CCC(C1)N2CCCOc1nc(N2CC3CCC(C2)N3)c2cc(Cl)c(-c3cc(O)cc4ccccc34)c(F)c2n1 (single isomer, unassigned) [Compound 213b, (1R,3R or 3S,5S)-8-(3-((4-((1R,5S)-3,8-diazabicyclo[3.2.1]octan-3-yl)-6-chloro-8-fluoro-7-(3-hydroxynaphthalen-1-yl)quinazolin-2-yl)oxy)propyl)-3-imino-3λ^6-thia-8-azabicyclo[3.2.1]octane 3-oxide formate]
2660	Oc1cc(-c2c(Cl)cc3c(N4CC5CCC(C4)N5)nc(OC[C@@]45CCCN4C[C@H](F)C5)nc3c2F)c2c(F)c(F)ccc2c1 (single isomer, unassigned) [Compound 214b, 4-(R or S)-4-((1R,5S)-3,8-diazabicyclo[3.2.1]octane-3-yl)-6-chloro-8-fluoro-2-((2R,7aS)-2-fluorotetrahydro-1H-pyrrolidin-7a(5H)-yl) methoxy) quinazolin-7-yl)-5,6-difluoronaphthalen-2-ol diformate]
1580	CCc1c(F)ccc2cc(O)cc(-c3c(F)cc4c(N5CC6CCC(C5)N6)nc(OCCCN5C6CCC5COC6)nc4c3F)c12 (single isomer, unassigned) [Compound 215b, 4-((7R or 7S)-2-(3-(3-oxa-8-azabicyclo[3.2.1]octan-8-yl)propoxy)-4-((1R,5S)-3,8-diazabicyclo[3.2.1]octan-3-yl)-6,8-difluoroquinazolin-7-yl)-5-ethyl-6-fluoronaphthalen-2-ol diformate]
191	C[C@@H](COc1nc(N2CC3CCC(C2)N3)c2cc(Cl)c(-c3cc(O)cc4ccccc34)c(F)c2n1)CN1CC(C)(C)OC(C)(C)C1 (single isomer, unassigned) [Compound 217, 4-((S or R)-4-((1R,5S)-3,8-diazabicyclo[3.2.1]octan-3-yl)-6-chloro-8-fluoro-2-((R)-2-methyl-3-(2,2,6,6-tetramethylmorpholinyl)propoxy)quinazolin-7-yl)naphthalen-2-ol formate]
250	Oc1cc(-c2c(Cl)cc3c(N4CC5CCC(C4)N5)nc(OCC(CN4C5CCC4COC5)C(F)(F)F)nc3c2F)c2ccccc2c1 (single isomer, unassigned) [Compound 218b, 4-((7S or 7R)-2-((2R or 2S)-2-((3-oxa-8-azabicyclo[3.2.1]octan-8-yl)methyl)-3,3,3-trifluoropropoxy)-4-((1R,5S)-3,8-diazabicyclo[3.2.1]octan-3-yl)-6-chloro-8-fluoroquinazolin-7-yl)naphthalen-2-ol formate]
581	CC1(C)CN(CCCOc2nc(N3CC4CCC(C3)N4)c3cc(Cl)c(-c4cc(O)cc5ccccc45)c(F)c3n2)CC(C)(C)O1 (single isomer, unassigned) [Compound 222, 4-((S or R)-4-((1R,5S)-3,8-diazabicyclo[3.2.1]octan-3-yl)-6-chloro-8-fluoro-2-(3-(2,2,6,6-tetramethylmorpholinyl)propoxy)quinazolin-7-yl)naphthalen-2-ol formate]
3280	CCc1c(F)ccc2cc(O)cc(-c3c(Cl)cc4c(N5CC6CCC(C5)N6)nc(OC[C@H](C)CN5C6CCC5COC6)nc4c3F)c12 (single isomer, unassigned) [Compound 233a, 4-((7S or 7R)-2-((2R)-3-(3-oxa-8-azabicyclo[3.2.1]octan-8-yl)-2-methylpropoxy)-4-((1R,5S)-3,8-diazabicyclo[3.2.1]octan-3-yl)-6-chloro-8-fluoroquinazolin-7-yl)-5-ethyl-6-fluoronaphthalen-2-ol formate]
1630	CCc1c(F)ccc2cc(O)cc(-c3c(F)cc4c(N5CC6CCC(C5)N6)nc(OCCCN5C[C@@H](C)O[C@@H](C)C5)nc4c3F)c12 (single isomer, unassigned) [Compound 250b, (R or S)-4-(4-((1R,5S)-3,8-diazacyclo[3.2.1]octan-3-yl)-2-(3-((2R,6S)-2,6-dimethylmorpholinyl)propoxy)-6,8-difluoroquinazolin-7-yl)-5-ethyl-6-fluoronaphthalen-2-ol formate]
5120	C#Cc1c(F)ccc2cc(O)cc(-c3c(Cl)cc4c(N5CC6CCC(C5)N6)nc(OCCCN5C6CCC5COC6)nc4c3F)c12 (single isomer, unassigned) [Compound 255a, (4S or 4R)-4-(2-(3-(3-oxa-8-azabicyclo[3.2.1]octan-8-yl)propoxy)-4-(1R,5S)-3,8-diazabicyclo[3.2.1]octan-3-yl)-6-chloro-8-fluoroquinazolin-7-yl)-5-ethynyl-6-fluoronaphthalen-2-ol diformate]
9410	CCc1cccc2cc(O)cc(-c3c(F)cc4c(N5CC6CCC(C5)N6)nc(OCCCN5C6CCC5COC6)nc4c3F)c12 (single isomer, unassigned) [Compound 271b, 4-((7R or 7S)-2-(3-(3-oxa-8-azabicyclo[3.2.1]octan-8-yl)propoxy)-4-((1R,5S)-3,8-diazabicyclo[3.2.1]octan-3-yl)-6,8-difluoroquinazolin-7-yl)-5-ethylnaphthalen-2-ol diformate]

— patent US20230365563A1, “QUINAZOLINE COMPOUND AND APPLICATION THEREOF” (SHANGHAI PHARMACEUTICALS HOLDING CO., LTD., priority 2020, published 2023)
